According to PMC8957246, “Synthesis and diverse biological activity profile of triethylammonium isatin-3-hydrazones” (ADMET & DMPK, 2022):
Like-named read-outs stand apart in the source and are kept apart here. Marks after values point to notes of the source that are not given here.

What was measured:
[1] = system: activated partial thromboplastin time (intrinsic coagulation pathway); test: Anticoagulant activity, clotting test APTT; design: species or system human; conditions: for APTT, % of control: concentration 5×10^–4 g/mL, median (25-75 percentiles); for anticoagulant activity: APTT, p<0.05
Method: The in vitro experiments were performed using the blood of healthy male donors aged 18-24 years (total 54 donors). The study was approved by the Ethics Committee of Federal State Budgetary Educational Institution of Higher Education at the Bashkir State Medical University of the Ministry of Health of Russian Federation (No.2 dated 17.10.2012). Informed consent was obtained from all participants before blood sampling. The blood was collected from the cubital vein using the system of vacuum blood collection BD Vacutainer® (Becton, Dickinson and Company, USA). A 3.8 % sodium citrate solution in a 9:1 ratio was used as a venous blood stabiliser. The study of the effect on platelet aggregation was performed using the Born method using the aggregometer «AT-02» (SPC Medtech, Russia). The assessment of antiplatelet activity of the studied compounds and reference preparations was started with the final concentration of 2×10^–3 mol/L. Adenosine diphosphate (ADP; 20 μg/mL) and collagen (5 mg/mL) manufactured by Tehnologia-Standart Company, Russia, were used as inducers of aggregation. The study on the anticoagulant activity was performed by standard recognised clotting tests using the optical two-channel automatic analyser of blood coagulation Solar CGL 2110 (CJSC SOLAR, Belarus). The following parameters were studied: activated partial thromboplastin time (APTT), prothrombin time (PT) and fibrinogen concentrations according to the Clauss method. The determination of anticoagulant activity of the studied compounds and reference preparation was performed in a concentration of 5×10^–4 g/mL using the reagents manufactured by Tehnologia-Standart Company (Barnaul, Russia). The results of the study were processed using the statistical package Statistica 10.0 (StatSoft Inc, USA). The Shapiro–Wilk’s test was used to check the normality of actual data distribution. The form of distribution of the data obtained differed from the normal one; therefore, non-parametric methods were used for further analysis. The data were presented as medians and 25 and 75 percentiles. Analysis of variance was conducted using Kruskal–Wallis test. A p value of 0.05 was considered statistically significant.

[2] = system: Xanthomonas campestris B-610; test: Bactericidal activity, agar diffusion, X. campestris; assay type: cell-based; conditions: Xanthomonas campestris, B610, 2 mM/L
Text: (§1) Plant pathogenic bacterial strains Micrococcus luteus B-109, Pectobacterium atrosepticum 1043, Pectobacterium carotovorum subsp. carotovorum MI, Pseudomonas fluorescens EL-2.1, and Xanthomonas campestris B-610 and fungal strain Fusarium oxysporum IBPPM 543 were obtained from the specialized scientific culture collection of IBPPM RAS (WFCC no. 975, WDCM no. 1021) (CM IBPPM). Pathogenic fungus Phytophthora cactorum VKM F-985 provided by the All-Russian Collection of Microorganisms (VKM) and deposited at A.E. Favorsky Irkutsk Institute of Chemistry, SB RAS, was also used as test organism. Bacteria M. luteus, P. carotovorum subsp. carotovorum, P. atrosepticum, and Ps. fluorescens were grown in meat-peptone medium (BP), and X. campestris was grown in the medium with glucose, yeast extract, and calcium carbonate (GYCa). Solid media contained Bacto agar (18 g/L); pH was adjusted to 7.2-7.4. All bacterial cultures were grown at 28°C. The mycelial cultures of F. oxysporum and P. cactorum were grown on a glucose-peptone-yeast (GPY) nutrient medium at 27 °C. For inoculum preparation, both fungal strains were initially grown on the agar GPY in Petri dishes and then transferred into the seed medium by punching out 5 mm of the agar plate culture with a self-designed cutter.
(§2) Antibacterial and antifungal activities of the compounds were explored using the agar diffusion method and the technique of a phytopathogen radial growth inhibition. Method of diffusion in agar (measuring the diameter of growth inhibition zones) was used for determining the bactericidal activity. The 6-mm wells were made in ager medium (GYCa for Xanthomonas campestris or BP for other bacteria). Bacterial suspensions were distributed over the agar surface, and the tested compound's solution (150 μl) was added to each well. The width of growth inhibition zones around the wells was determined after incubation for 36-40 h.
(§3) The solutions of tested compounds were prepared with a concentration of 2 mmol/l (stock solution). For comparison, test compounds were also commonly applied disinfecting agents and antibiotics.

[3] = system: Bacillus cereus ATCC 10702 NCTC 8035; test: Antimicrobial activity, serial dilution (MIC/MBC), Bc; assay type: cell-based
Method: (§4) The antimicrobial activity of the test compounds was determined by the serial dilution technique in Muller Hinton Broth 2 and in Sabouradu broth for fungi. The cultures used for testing included Gram-positive bacteria: Staphylococcus aureus ATCC 6538P FDA 209P, Bacillus cereus ATCC 10702 NCTC 8035, Enterococcus faecalis ATCC 29212; Gram-negative bacteria: Escherichia coli ATCC 25922, Pseudomonas aeruginosa ATCC 9027, and fungi: Trichophyton mentagrophytes var. gypseum 1773, and Candida albicans ATCC 10231; methicillin-resistant strains of S. aureus (MRSA) was obtained from hospital patients with chronic tonsillitis in the Republican Clinical Hospital (Kazan, Russia). The bacterial load was 3.0 × 10^5 cfu/ml. The fungi load was 2.0 × 10^3 cfu/ml. The results were recorded every 24 h for 5-7 days. Cultures were incubated at 37 °C. The experiment was repeated three times. […] The minimum inhibitory concentration (MIC) was defined as the minimum concentration of a compound that inhibits the growth of the corresponding test microorganism. The growth of bacteria, as well as the absence of the growth due to the bacteriostatic action of compounds, were recorded.
(§5) Synthesized compounds were further evaluated for antimicrobial activity against test microorganisms: Staphylococcus aureus ATCC 209p (Sa), Bacillus cereus ATCC 8035 (Bc), Escherichia coli CDC F-50 (Ec), Enterococcus faecalis (Ef), Pseudomonas aeruginosa ATCC 9027, Aspergillus niger BKMF-1119, Trichophyton mentagrophytes var. gypseum 1773, and Candida albicans 855-653 including methicillin-resistant strains of S. aureus (MRSA 1 and MRSA 2). The minimum inhibitory (MIC) and minimum bactericidal (MBC) concentrations of ammonium salts were determined against these pathogens (Table 1). Due to the lack of activity of compounds 3a-g against Gram-negative bacterial strains and some fungi, the corresponding data are not shown.

[4] = system: Staphylococcus aureus ATCC 6538P FDA 209P; test: Antimicrobial activity, serial dilution (MIC/MBC), Sa; assay type: cell-based
Method: as §4, §5

[5] = system: Micrococcus luteus B-109; test: Bactericidal activity, agar diffusion, M. luteus; assay type: cell-based; conditions: Micrococcus luteus, B109, 2 mM/L
Text: as §1, §2, §3

[6] = 150 μl per well, 36-40 h, read-out: width of the inhibition zone
[7] = read-out: Inhibition zone width (mm), not less
[8] = Staphylococcus aureus, read-out: MBC (converted)

| SMILES | MIC ([3]; Bacillus cereus, read-out: MIC) [µM] | MIC ([4]; Staphylococcus aureus) [µM] | MIC [3] [µM] | APTT, % of control [1] | zone of inhibition at 2000 µM [2, 6] [mm] | zone of inhibition at 2000 µM [2, 7] [mm] | MBC ([3]; Bacillus cereus) [µM] | MBC [4, 8] [µM] | zone of inhibition at 2000 µM [5, 6] [mm] | zone of inhibition at 2000 µM [5, 7] [mm] | anticoagulant activity [1] [%] | MBC [4] [µM] |
| --- | --- | --- | --- | --- | --- | --- | --- | --- | --- | --- | --- | --- |
| CC[N+](CC)(CC)CC(=O)N/N=C1\C(=O)N(Cc2cc(C(C)(C)C)c(O)c(C(C)(C)C)c2)c2ccccc21 [Compound 3a, 2-(2-(1-(3,5-Di-tert-butyl-4-hydroxybenzyl)-2-oxoindolin-3-ylidene)hydrazinyl)-N,N,N-triethyl-2-oxoethanammonium bromide] | 52 ± 4.7 | 6.5 ± 0.5 |  | +5.2 (4.1-7.6) ^*, ^† % of control | 10 | ≥ 10 | > 500 | 13 | 9 | ≥ 9 |  |  |
| CC[N+](CC)(CC)CC(=O)N/N=C1\C(=O)N(Cc2cc(C(C)(C)C)c(O)c(C(C)(C)C)c2)c2c1ccc(C)c2C [Compound 3d, 2-(2-(1-(3,5-Di-tert-butyl-4-hydroxybenzyl)-6,7-dimethyl-2-oxoindolin-3-ylidene)hydrazinyl)-N,N,N-triethyl-2-oxoethanammonium bromide] | 49.6 ± 3.9 | 3.1 ± 0.2 |  | +4.8 (3.7-6.9) ^‡ % of control | 8 | ≥ 8 | 198 | 12.4 | 8 | ≥ 8 |  |  |
| CC[N+](CC)(CC)CC(=O)N/N=C1\C(=O)N(Cc2cc(C(C)(C)C)c(O)c(C(C)(C)C)c2)c2cccc(Br)c21 [Compound 3e, 2-(2-(1-(3,5-Di-tert-butyl-4-hydroxybenzyl)-4-bromo-2-oxoindolin-3-ylidene)hydrazinyl)-N,N,N-triethyl-2-oxoethanammonium bromide] | 71 ± 6.2 | 8.9 ± 0.7 |  | +3.2 (2.8-5.4) ^‡ % of control | 11 | ≥ 11 | 284 | 17.7 | 13 | ≥ 13 |  |  |
| CC[N+](CC)(CC)CC(=O)N/N=C1\C(=O)N(Cc2cc(C(C)(C)C)c(O)c(C(C)(C)C)c2)c2ccc([N+](=O)[O-])cc21 [Compound 3f, 2-(2-(1-(3,5-Di-tert-butyl-4-hydroxybenzyl)-5-nitro-2-oxoindolin-3-ylidene)hydrazinyl)-N,N,N-triethyl-2-oxoethanammonium bromide] | 397 ± 31.7 | 48.3 ± 3.9 |  | +10.3 (8.5-12.7) ^*, ^† % of control | 7.5 |  | > 500 | 96.7 | 10 | ≥ 10 | ≥ 10 |  |

Stronger by MIC ([3]; Bacillus cereus, read-out: MIC), values ahead:

| MIC ([3]; Bacillus cereus, read-out: MIC) [µM] | MIC ([4]; Staphylococcus aureus) [µM] | MIC [3] [µM] | SMILES | APTT, % of control [1] | zone of inhibition at 2000 µM [2, 6] [mm] | zone of inhibition at 2000 µM [2, 7] [mm] | MBC ([3]; Bacillus cereus) [µM] | MBC [4, 8] [µM] | zone of inhibition at 2000 µM [5, 6] [mm] | zone of inhibition at 2000 µM [5, 7] [mm] | anticoagulant activity [1] [%] | MBC [4] [µM] |
| --- | --- | --- | --- | --- | --- | --- | --- | --- | --- | --- | --- | --- |
| 43.7 ± 3.5 | 11 ± 0.9 |  | CC[N+](CC)(CC)CC(=O)N/N=C1\C(=O)N(Cc2cc(C(C)(C)C)c(O)c(C(C)(C)C)c2)c2c(Br)cc(Cl)cc21 [Compound 3g, 2-(2-(1-(3,5-Di-tert-butyl-4-hydroxybenzyl)-5-chloro-7-bromo-2-oxoindolin-3-ylidene)hydrazinyl)-N,N,N-triethyl-2-oxoethanammonium bromide] | +8.6 (6.1-10.9) ^*, ^† % of control | 8 | ≥ 8 | 87.4 | 21.9 | 7 |  |  |  |
| ~25 | 3.1 ± 0.2 | 24.8 ± 1.9 | CCc1cccc2c1N(Cc1cc(C(C)(C)C)c(O)c(C(C)(C)C)c1)C(=O)/C2=N\NC(=O)C[N+](CC)(CC)CC [Compound 3c, 2-(2-(1-(3,5-Di-tert-butyl-4-hydroxybenzyl)-7-ethyl-2-oxoindolin-3-ylidene)hydrazinyl)-N,N,N-triethyl-2-oxoethanammonium bromide] | +11.2 (7.9-13.1) ^*, ^† % of control | 11 | ≥ 11 | 99.3 | 6.2 | 10.5 | ≥ 10 | ≥ 10 | 6.2 ± 0.5 |
